# According to ChEMBL document CHEMBL1201861, “Genomics of Drug Sensitity in Cancer screening data, Wellcome Trust Sanger Institute”:
# How the values were obtained:
# Assay in all cases: cells
# Format in all cases: functional, cell-based, Homo sapiens
# NCI-H1648 = test system: NCI-H1648;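 note: cell viability assay measuring inhibition of NCI-H1648 cell growth, from the Sanger screening data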
# Description: SANGER: Inhibition of human NCI-H1648 cell growth in a cell viability assay.
# NB69 = test system: NB69;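 note: growth inhibition of NB69 cells, determined by a cell viability assay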
# Description: SANGER: Inhibition of human NB69 cell growth in a cell viability assay.
# SNB-75 = test system: SNB-75;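 note: cell viability assay measuring growth inhibition of human SNB-75 cells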
# Description: SANGER: Inhibition of human SNB75 cell growth in a cell viability assay.
# VA-ES-BJ = test system: VA-ES-BJ;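 note: growth inhibition of the VA-ES-BJ cell line, read out by a cell viability assay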
# Description: SANGER: Inhibition of human VA-ES-BJ cell growth in a cell viability assay.
# NKM-1 = test system: NKM-1;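 note: growth inhibition of NKM-1 cells, read out with a cell viability assay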
# Description: SANGER: Inhibition of human NKM-1 cell growth in a cell viability assay.
# ES7 = test system: ES7;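 note: growth inhibition of cultured human ES7 cells, read out as cell viability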
# Description: SANGER: Inhibition of human ES7 cell growth in a cell viability assay.
# TE-8 = test system: TE-8;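 note: growth inhibition of TE-8 cells, measured with a cell viability readout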
# Description: SANGER: Inhibition of human TE-8 cell growth in a cell viability assay.
# MHH-NB-11 = test system: MHH-NB-11;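 note: growth inhibition of human MHH-NB-11 cells, read out by a cell viability assay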
# Description: SANGER: Inhibition of human MHH-NB-11 cell growth in a cell viability assay.
# ES1 = test system: ES1;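 note: growth inhibition of ES1 cells, read out with a cell viability assay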
# Description: SANGER: Inhibition of human ES1 cell growth in a cell viability assay.
# U-266 = test system: U-266
# Description: SANGER: Inhibition of human U-266 cell growth in a cell viability assay.
# SW982 = test system: SW982;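 note: growth inhibition of SW982 cells, read out with a cell viability assay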
# Description: SANGER: Inhibition of human SW982 cell growth in a cell viability assay.
# TGBC1TKB = test system: TGBC1TKB;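 note: growth inhibition of TGBC1TKB cells, read out by a cell viability assay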
# Description: SANGER: Inhibition of human TGBC1TKB cell growth in a cell viability assay.
# LXF-289 cell line = test system: LXF-289 cell line
# Description: SANGER: Inhibition of human LXF-289 cell growth in a cell viability assay.
# no-11 = test system: no-11;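 note: growth inhibition of human NO-11 cells, read out with a cell viability assay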
# Description: SANGER: Inhibition of human no-11 cell growth in a cell viability assay.
# COLO-829 = test system: COLO-829
# Description: SANGER: Inhibition of human COLO-829 cell growth in a cell viability assay.
# SCC-15 = test system: SCC-15;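 note: growth inhibition of SCC-15 cells, read out with a cell viability assay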
# Description: SANGER: Inhibition of human SCC-15 cell growth in a cell viability assay.
# GT3TKB = test system: GT3TKB;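 note: growth inhibition of the cell line, read out with a cell viability assay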
# Description: SANGER: Inhibition of human GT3TKB cell growth in a cell viability assay.
# SNU1 = conditions: Homo sapiens, SNU1;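 note: growth inhibition of human NCI-SNU-1 cells, measured with a cell viability assay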
# Description: SANGER: Inhibition of human NCI-SNU-1 cell growth in a cell viability assay.
# EW-18 = test system: EW-18;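 note: growth inhibition of EW-18 cells, read out by a cell viability assay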
# Description: SANGER: Inhibition of human EW-18 cell growth in a cell viability assay.
# NCI-H510A = test system: NCI-H510A;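 note: growth inhibition of NCI-H510A cells, read out with a cell viability assay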
# Description: SANGER: Inhibition of human NCI-H510A cell growth in a cell viability assay.
# LAN-6 = test system: LAN-6;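 note: growth inhibition of LAN-6 cells, determined with a cell viability assay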
# Description: SANGER: Inhibition of human LAN-6 cell growth in a cell viability assay.
# TE-12 = test system: TE-12;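 note: growth inhibition of TE-12 cells, read out by a cell viability assay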
# Description: SANGER: Inhibition of human TE-12 cell growth in a cell viability assay.
# 697 = test system: 697
# Description: SANGER: Inhibition of human 697 cell growth in a cell viability assay.
# CP66-MEL = test system: CP66-MEL;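 note: growth inhibition of CP66-MEL cells determined in a cell viability assay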
# Description: SANGER: Inhibition of human CP66-MEL cell growth in a cell viability assay.
# LB1047-RCC = test system: LB1047-RCC;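 note: inhibition of cell growth, determined with a cell viability assay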
# Description: SANGER: Inhibition of human LB1047-RCC cell growth in a cell viability assay.
# MHH-PREB-1 = test system: MHH-PREB-1;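 note: cell viability assay measuring inhibition of proliferation of human MHH-PREB-1 cells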
# Description: SANGER: Inhibition of human MHH-PREB-1 cell growth in a cell viability assay.
# DSH1 = test system: DSH1;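 note: growth inhibition of human DSH1 cells, measured with a cell viability readout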
# Description: SANGER: Inhibition of human DSH1 cell growth in a cell viability assay.
# COLO-800 = test system: COLO-800;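 note: growth inhibition of COLO-800 cells, read out with a cell viability assay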
# Description: SANGER: Inhibition of human COLO-800 cell growth in a cell viability assay.
# COLO-668 = test system: COLO-668
# Description: SANGER: Inhibition of human COLO-668 cell growth in a cell viability assay.
# COLO-684 = test system: COLO-684
# Description: SANGER: Inhibition of human COLO-684 cell growth in a cell viability assay.
# HDLM-2 = test system: HDLM-2;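 note: cell viability assay measuring suppression of HDLM-2 proliferation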
# Description: SANGER: Inhibition of human HDLM-2 cell growth in a cell viability assay.
# TGBC24TKB = test system: TGBC24TKB;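 note: growth inhibition of human TGBC24TKB cells, read out with a cell viability assay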
# Description: SANGER: Inhibition of human TGBC24TKB cell growth in a cell viability assay.
# CTV-1 = test system: CTV-1;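 note: growth inhibition of the cell line, read out with a cell viability assay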
# Description: SANGER: Inhibition of human CTV-1 cell growth in a cell viability assay.
# ONS-76 = test system: ONS-76;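 note: growth inhibition of human ONS-76 cells, read out with a cell viability assay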
# Description: SANGER: Inhibition of human ONS-76 cell growth in a cell viability assay.
# KLE = test system: KLE;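 note: growth inhibition of human KLE cells, read out with a cell viability assay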
# Description: SANGER: Inhibition of human KLE cell growth in a cell viability assay.
# KMOE-2 = test system: KMOE-2;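 note: growth inhibition of human KMOE-2 cells, read out with a cell viability assay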
# Description: SANGER: Inhibition of human KMOE-2 cell growth in a cell viability assay.
# SK-UT-1 = test system: SK-UT-1;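 note: growth inhibition of SK-UT-1 cells, measured by a cell viability assay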
# Description: SANGER: Inhibition of human SK-UT-1 cell growth in a cell viability assay.
# SW872 = test system: SW872;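 note: growth inhibition of SW872 cells, read out by a viability assay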
# Description: SANGER: Inhibition of human SW872 cell growth in a cell viability assay.
# ML-2 = test system: ML-2;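 note: growth inhibition of ML-2 cells, measured with a cell viability readout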
# Description: SANGER: Inhibition of human ML-2 cell growth in a cell viability assay.
# KNS-81-FD = test system: KNS-81-FD;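 note: growth inhibition of KNS-81-FD cells, read out with a cell viability assay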
# Description: SANGER: Inhibition of human KNS-81-FD cell growth in a cell viability assay.
# GB-1 = test system: GB-1;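 note: growth of GB-1 cells judged by a viability assay, IC50 marks the concentration inhibiting growth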
# Description: SANGER: Inhibition of human GB-1 cell growth in a cell viability assay.
# RPMI-8866 = test system: RPMI-8866
# Description: SANGER: Inhibition of human RPMI-8866 cell growth in a cell viability assay.
# BB49-HNC = test system: BB49-HNC;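 note: cell viability assay read-out, reported as inhibition of BB49-HNC cell growth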
# Description: SANGER: Inhibition of human BB49-HNC cell growth in a cell viability assay.
# CCRF-CEM = test system: CCRF-CEM;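 note: inhibition of CCRF-CEM cell growth, measured by a cell viability assay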
# Description: SANGER: Inhibition of human CCRF-CEM cell growth in a cell viability assay.
# SF-126 = test system: SF-126;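 note: growth inhibition of human SF126 cells, read out with a cell viability assay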
# Description: SANGER: Inhibition of human SF126 cell growth in a cell viability assay.
# LS-123 = test system: LS-123
# Description: SANGER: Inhibition of human LS-123 cell growth in a cell viability assay.
# EC-GI-10 = test system: EC-GI-10
# Description: SANGER: Inhibition of human EC-GI-10 cell growth in a cell viability assay.
# EOL1 = conditions: eol1;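 note: growth inhibition of EoL-1 cells, read out by a cell viability assay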
# Description: SANGER: Inhibition of human EoL-1-cell cell growth in a cell viability assay.
molecule,measurement,setting,value
CS(=O)(=O)c1ccc(C(=O)Nc2ccc(Cl)c(-c3ccccn3)c2)c(Cl)c1 [VISMODEGIB],IC50,"NCI-H1648; Homo sapiens, NCI-H1648",> 10 µM
same,IC50,"NB69; Homo sapiens, NB69",> 10 µM
same,IC50,"SNB-75; Homo sapiens, SNB-75",> 10 µM
same,IC50,"VA-ES-BJ; Homo sapiens, VA-ES-BJ",> 10 µM
same,IC50,"NKM-1; Homo sapiens, NKM-1",> 10 µM
same,IC50,"ES7; Homo sapiens, ES7",> 10 µM
same,IC50,"TE-8; Homo sapiens, TE-8",> 10 µM
same,IC50,"MHH-NB-11; Homo sapiens, MHH-NB-11",> 10 µM
same,IC50,"ES1; Homo sapiens, ES1",> 10 µM
same,IC50,"U-266; Homo sapiens, U-266",> 10 µM
same,IC50,"SW982; Homo sapiens, SW982",> 10 µM
same,IC50,"TGBC1TKB; Homo sapiens, TGBC1TKB",> 10 µM
same,IC50,"LXF-289 cell line; Homo sapiens, LXF-289",> 10 µM
same,IC50,no-11; Homo sapiens,> 10 µM
same,IC50,"COLO-829; Homo sapiens, COLO-829",> 10 µM
same,IC50,"SCC-15; Homo sapiens, SCC-15",> 10 µM
same,IC50,"GT3TKB; Homo sapiens, GT3TKB",> 10 µM
same,IC50,SNU1,> 10 µM
same,IC50,"EW-18; Homo sapiens, EW-18",> 10 µM
same,IC50,"NCI-H510A; Homo sapiens, NCI-H510A",> 10 µM
same,IC50,"LAN-6; Homo sapiens, LAN-6",> 10 µM
same,IC50,"TE-12; Homo sapiens, TE-12",> 10 µM
same,IC50,697; Homo sapiens,> 10 µM
same,IC50,"CP66-MEL; Homo sapiens, CP66-MEL",> 10 µM
same,IC50,"LB1047-RCC; Homo sapiens, LB1047-RCC",> 10 µM
same,IC50,"MHH-PREB-1; Homo sapiens, MHH-PREB-1",> 10 µM
same,IC50,"DSH1; Homo sapiens, DSH1",> 10 µM
same,IC50,"COLO-800; Homo sapiens, COLO-800",> 10 µM
same,IC50,"COLO-668; Homo sapiens, COLO-668",> 10 µM
same,IC50,"COLO-684; Homo sapiens, COLO-684",> 10 µM
same,IC50,"HDLM-2; Homo sapiens, HDLM-2",8.05 µM
same,IC50,"TGBC24TKB; Homo sapiens, TGBC24TKB",> 10 µM
same,IC50,"CTV-1; Homo sapiens, CTV-1",> 10 µM
same,IC50,"ONS-76; Homo sapiens, ONS-76",> 10 µM
same,IC50,"KLE; Homo sapiens, KLE",> 10 µM
same,IC50,"KMOE-2; Homo sapiens, KMOE-2",> 10 µM
same,IC50,"SK-UT-1; Homo sapiens, SK-UT-1",> 10 µM
same,IC50,"SW872; Homo sapiens, SW872",> 10 µM
same,IC50,"ML-2; Homo sapiens, ML-2",> 10 µM
same,IC50,"KNS-81-FD; Homo sapiens, KNS-81-FD",> 10 µM
same,IC50,"GB-1; Homo sapiens, GB-1",> 10 µM
same,IC50,"RPMI-8866; Homo sapiens, RPMI-8866",> 10 µM
same,IC50,"BB49-HNC; Homo sapiens, BB49-HNC",> 10 µM
same,IC50,"CCRF-CEM; Homo sapiens, CCRF-CEM",> 10 µM
same,IC50,"SF-126; Homo sapiens, SF-126",> 10 µM
same,IC50,"LS-123; Homo sapiens, LS-123",> 10 µM
same,IC50,"EC-GI-10; Homo sapiens, EC-GI-10",> 10 µM
CISPLATIN,IC50,NCI-H1648; nci-h1648,69.7 µM
same,IC50,NB69; nb69,52.1 µM
same,IC50,SNB-75; snb-75,48 µM
same,IC50,VA-ES-BJ; va-es-bj,2.45 µM
same,IC50,NKM-1; nkm-1,6.04 µM
same,IC50,ES7; es7,1.87 µM
same,IC50,TE-8; te-8,16.5 µM
same,IC50,MHH-NB-11; mhh-nb-11,4.83 µM
same,IC50,ES1; es1,1.02 µM
same,IC50,U-266; u-266,154 µM
same,IC50,SW982; sw982,23.1 µM
same,IC50,TGBC1TKB; tgbc1tkb,82.6 µM
same,IC50,LXF-289 cell line; lxf-289,52.7 µM
same,IC50,no-11,15.6 µM
same,IC50,COLO-829; colo-829,7.27 µM
same,IC50,SCC-15; scc-15,28.9 µM
same,IC50,GT3TKB; gt3tkb,3.92 µM
same,IC50,EW-18; ew-18,35.2 µM
same,IC50,NCI-H510A; nci-h510a,3.1 µM
same,IC50,LAN-6; lan-6,256 µM
same,IC50,TE-12; te-12,42.6 µM
same,IC50,697,1.89 µM
same,IC50,CP66-MEL; cp66-mel,32 µM
same,IC50,LB1047-RCC; lb1047-rcc,5.89 µM
same,IC50,MHH-PREB-1; mhh-preb-1,23.8 µM
same,IC50,DSH1; dsh1,145 µM
same,IC50,COLO-800; colo-800,20.1 µM
same,IC50,COLO-668; colo-668,103 µM
same,IC50,COLO-684; colo-684,29.1 µM
same,IC50,HDLM-2; hdlm-2,144 µM
same,IC50,TGBC24TKB; tgbc24tkb,39.8 µM
same,IC50,CTV-1; ctv-1,34 µM
same,IC50,ONS-76; ons-76,3.95 µM
same,IC50,KLE; kle,137 µM
same,IC50,KMOE-2; kmoe-2,25.2 µM
same,IC50,SK-UT-1; sk-ut-1,12.9 µM
same,IC50,EOL1,38 µM
same,IC50,SW872; sw872,40.8 µM
same,IC50,ML-2; ml-2,163 µM
same,IC50,KNS-81-FD; kns-81-fd,535 µM
same,IC50,GB-1; gb-1,1.9 µM
same,IC50,RPMI-8866; rpmi-8866,13.2 µM
same,IC50,BB49-HNC; bb49-hnc,48.2 µM
same,IC50,CCRF-CEM; ccrf-cem,96 µM
same,IC50,SF-126; sf-126,12.1 µM
same,IC50,LS-123; ls-123,491 µM
same,IC50,EC-GI-10; ec-gi-10,13.2 µM
